{
  "source": "ChEMBL document CHEMBL4706552",
  "about": "“Discovery of 4-methyl-N-(4-((4-methylpiperazin- 1-yl)methyl)-3-(trifluoromethyl)phenyl)-3-((6-(pyridin-3-yl)-1H-pyrazolo[3,4-d]pyrimidin-4-yl)-oxy)benzamide as a potent inhibitor of RET and its gatekeeper mutant” (Eur J Med Chem, 2020)",
  "key": {"[1]": {"biological_target": "Proto-oncogene tyrosine-protein kinase receptor Ret (Homo sapiens, UniProt P07949)", "sequence (P07949 whole entry, the tested form may be a part)": "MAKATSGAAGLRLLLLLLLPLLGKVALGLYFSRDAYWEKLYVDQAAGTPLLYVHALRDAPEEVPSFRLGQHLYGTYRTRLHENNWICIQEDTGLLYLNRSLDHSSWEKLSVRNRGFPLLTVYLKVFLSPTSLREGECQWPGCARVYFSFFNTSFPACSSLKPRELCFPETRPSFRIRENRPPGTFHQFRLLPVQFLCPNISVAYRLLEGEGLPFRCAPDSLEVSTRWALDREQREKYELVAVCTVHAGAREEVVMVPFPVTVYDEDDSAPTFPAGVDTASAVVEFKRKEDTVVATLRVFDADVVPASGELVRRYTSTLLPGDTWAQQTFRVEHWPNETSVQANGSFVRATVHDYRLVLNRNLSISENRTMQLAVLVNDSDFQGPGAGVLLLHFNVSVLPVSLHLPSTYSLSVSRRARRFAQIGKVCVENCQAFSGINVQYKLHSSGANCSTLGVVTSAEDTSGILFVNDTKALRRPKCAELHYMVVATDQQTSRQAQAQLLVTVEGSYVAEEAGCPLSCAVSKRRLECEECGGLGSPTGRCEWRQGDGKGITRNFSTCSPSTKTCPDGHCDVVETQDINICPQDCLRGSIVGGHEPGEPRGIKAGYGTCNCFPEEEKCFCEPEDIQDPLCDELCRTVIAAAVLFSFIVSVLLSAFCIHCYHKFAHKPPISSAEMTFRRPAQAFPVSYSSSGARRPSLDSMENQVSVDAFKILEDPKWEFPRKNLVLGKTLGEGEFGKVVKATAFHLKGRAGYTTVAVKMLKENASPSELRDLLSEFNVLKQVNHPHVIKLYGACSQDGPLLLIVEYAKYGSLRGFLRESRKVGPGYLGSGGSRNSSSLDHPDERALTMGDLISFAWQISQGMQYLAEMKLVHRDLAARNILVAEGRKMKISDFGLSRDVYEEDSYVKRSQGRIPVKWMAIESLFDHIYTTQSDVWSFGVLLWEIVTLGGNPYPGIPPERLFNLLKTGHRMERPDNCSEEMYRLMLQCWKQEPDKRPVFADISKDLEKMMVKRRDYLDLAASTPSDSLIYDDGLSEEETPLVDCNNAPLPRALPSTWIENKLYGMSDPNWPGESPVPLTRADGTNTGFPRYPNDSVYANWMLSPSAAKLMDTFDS", "experiment": "Binding affinity to wild-type human partial length RET (E713 to D1014 residues) expressed in bacterial expression system assessed as residual binding level at 1 uM by kinomescan method relative to control"}, "[2]": {"biological_target": "T1, Coiled-coil domain-containing protein 6/Tyrosine-protein kinase receptor RET (Homo sapiens) (UniProt P07949+Q16204)", "T1 sequence (P07949 29-1114 limits assumed)": "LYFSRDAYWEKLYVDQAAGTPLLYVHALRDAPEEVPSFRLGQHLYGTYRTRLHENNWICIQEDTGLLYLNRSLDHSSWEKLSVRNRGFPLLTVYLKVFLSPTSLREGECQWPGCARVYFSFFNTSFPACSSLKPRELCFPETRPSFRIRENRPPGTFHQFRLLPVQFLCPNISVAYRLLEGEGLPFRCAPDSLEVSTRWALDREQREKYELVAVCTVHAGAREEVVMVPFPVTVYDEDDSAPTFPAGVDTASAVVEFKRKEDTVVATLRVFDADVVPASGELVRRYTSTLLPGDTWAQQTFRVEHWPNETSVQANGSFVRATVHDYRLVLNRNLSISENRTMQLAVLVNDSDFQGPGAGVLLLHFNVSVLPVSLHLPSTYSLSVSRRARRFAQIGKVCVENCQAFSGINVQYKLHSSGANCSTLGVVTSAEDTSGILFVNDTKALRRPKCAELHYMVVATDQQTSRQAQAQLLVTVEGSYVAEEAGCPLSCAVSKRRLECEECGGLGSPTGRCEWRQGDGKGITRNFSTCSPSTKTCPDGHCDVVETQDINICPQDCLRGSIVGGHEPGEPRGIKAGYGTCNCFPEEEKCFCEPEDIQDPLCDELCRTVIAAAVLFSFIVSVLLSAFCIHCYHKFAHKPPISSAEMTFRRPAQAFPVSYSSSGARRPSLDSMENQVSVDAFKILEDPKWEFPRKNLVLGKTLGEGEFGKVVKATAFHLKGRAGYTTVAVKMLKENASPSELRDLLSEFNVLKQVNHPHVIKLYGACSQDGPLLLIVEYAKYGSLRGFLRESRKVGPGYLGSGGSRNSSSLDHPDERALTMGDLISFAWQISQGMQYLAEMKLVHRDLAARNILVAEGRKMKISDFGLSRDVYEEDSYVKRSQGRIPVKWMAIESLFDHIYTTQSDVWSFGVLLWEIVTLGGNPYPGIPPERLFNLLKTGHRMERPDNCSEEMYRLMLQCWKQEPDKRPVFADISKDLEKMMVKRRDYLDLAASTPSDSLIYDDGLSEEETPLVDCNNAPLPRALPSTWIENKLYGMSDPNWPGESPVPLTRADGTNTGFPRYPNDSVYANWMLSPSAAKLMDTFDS", "T1 sequence (Q16204 2-474 partner limits assumed)": "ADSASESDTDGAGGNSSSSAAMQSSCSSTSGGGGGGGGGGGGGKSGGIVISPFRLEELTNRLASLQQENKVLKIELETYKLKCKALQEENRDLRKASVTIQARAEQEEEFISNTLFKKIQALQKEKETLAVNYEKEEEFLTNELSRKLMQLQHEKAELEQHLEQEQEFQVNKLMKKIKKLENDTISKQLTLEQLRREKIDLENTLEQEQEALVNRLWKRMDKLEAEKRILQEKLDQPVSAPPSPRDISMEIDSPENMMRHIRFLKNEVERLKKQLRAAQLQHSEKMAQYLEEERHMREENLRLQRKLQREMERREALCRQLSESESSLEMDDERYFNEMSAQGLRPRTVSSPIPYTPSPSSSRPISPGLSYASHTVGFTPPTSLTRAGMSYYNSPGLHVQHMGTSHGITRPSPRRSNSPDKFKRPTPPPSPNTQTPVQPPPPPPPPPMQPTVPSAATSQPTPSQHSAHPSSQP", "experiment": "Inhibition of CCDC6-RET fusion protein (unknown origin) expressed in mouse BaF3 cells assessed as reduction in cell proliferation measured after 48 hrs by MTS assay", "assay_type": "cell-based"}, "BaF3 [3]": {"system": "BaF3", "experiment": "Inhibition of CCDC6-RET V804M mutant fusion protein (unknown origin) expressed in mouse BaF3 cells assessed as reduction in cell proliferation measured after 48 hrs by MTS assay", "assay_type": "cell-based", "conditions": "Homo sapiens"}, "[4]": {"system": "Kinesin-1 heavy chain/ Tyrosine-protein kinase receptor RET (Homo sapiens), P07949+P33176 [V804M]", "experiment": "Inhibition of KIF5B-RET V804M mutant fusion protein (unknown origin) expressed in mouse BaF3 cells assessed as reduction in cell proliferation measured after 48 hrs by MTS assay", "assay_type": "cell-based"}, "[5]": {"biological_target": "Proto-oncogene tyrosine-protein kinase receptor Ret (Homo sapiens, UniProt P07949, M918T)", "sequence (P07949 29-1114 M918T limits assumed)": "as the sequence (P07949 29-1114 limits assumed) above, with M890T counted along it", "experiment": "Inhibition of recombinant human N-terminal GST-HIS6 fused RET M918T mutant C-terminal domain (H658 to S1114 residues) expressed in Sf9 insect cells using TRK-C-derived peptide as substrate in presence of [33P]-ATP by filter binding assay"}, "[6]": {"biological_target": "Kinesin-1 heavy chain/ Tyrosine-protein kinase receptor RET (Homo sapiens, UniProt P07949)", "sequence (P07949 whole entry, the tested form may be a part)": "as the sequence (P07949 whole entry, the tested form may be a part) above", "sequence (P33176 whole entry, further chain, the tested form may be a part)": "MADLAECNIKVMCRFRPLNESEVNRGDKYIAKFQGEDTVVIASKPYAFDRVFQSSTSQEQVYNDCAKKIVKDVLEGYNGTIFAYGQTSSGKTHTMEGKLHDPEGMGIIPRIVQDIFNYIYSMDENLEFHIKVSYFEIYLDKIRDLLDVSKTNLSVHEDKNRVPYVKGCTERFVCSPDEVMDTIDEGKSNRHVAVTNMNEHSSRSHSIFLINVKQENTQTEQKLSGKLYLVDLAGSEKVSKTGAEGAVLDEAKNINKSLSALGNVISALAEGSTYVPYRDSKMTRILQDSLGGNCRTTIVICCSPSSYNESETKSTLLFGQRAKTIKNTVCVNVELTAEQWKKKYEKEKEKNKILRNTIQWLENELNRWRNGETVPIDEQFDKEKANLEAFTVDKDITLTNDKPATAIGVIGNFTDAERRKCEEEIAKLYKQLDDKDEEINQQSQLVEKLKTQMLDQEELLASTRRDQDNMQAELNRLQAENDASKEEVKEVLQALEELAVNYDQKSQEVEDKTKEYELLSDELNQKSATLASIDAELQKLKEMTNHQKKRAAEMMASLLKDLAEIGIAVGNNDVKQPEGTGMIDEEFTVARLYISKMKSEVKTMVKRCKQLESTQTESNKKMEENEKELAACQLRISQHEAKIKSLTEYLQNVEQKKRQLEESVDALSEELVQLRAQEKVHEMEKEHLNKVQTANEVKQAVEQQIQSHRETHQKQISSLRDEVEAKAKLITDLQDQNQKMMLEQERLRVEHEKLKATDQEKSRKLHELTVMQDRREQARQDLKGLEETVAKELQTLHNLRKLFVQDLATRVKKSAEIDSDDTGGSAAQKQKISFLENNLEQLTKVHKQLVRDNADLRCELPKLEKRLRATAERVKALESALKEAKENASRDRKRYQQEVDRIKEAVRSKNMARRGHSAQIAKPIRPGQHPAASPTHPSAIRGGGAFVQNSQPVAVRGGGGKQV", "experiment": "Inhibition of KIF5B-RET fusion protein (unknown origin) by radiometric assay"}, "[7]": {"system": "Proto-oncogene tyrosine-protein kinase receptor Ret (Homo sapiens), P07949 [M918T]", "sequence (P07949 whole entry M918T, the tested form may be a part)": "as the sequence (P07949 whole entry, the tested form may be a part) above, with M918T counted along it", "experiment": "Binding affinity to wild-type human partial length RET M918T mutant (E713 to D1014 residues) expressed in bacterial expression system assessed as residual binding level at 1 uM by kinomescan method relative to control"}, "[8]": {"system": "Proto-oncogene tyrosine-protein kinase receptor Ret (Homo sapiens), P07949 [V804L]", "sequence (P07949 whole entry V804L, the tested form may be a part)": "as the sequence (P07949 whole entry, the tested form may be a part) above, with V804L counted along it", "experiment": "Binding affinity to wild-type human partial length RET V804L mutant (E713 to D1014 residues) expressed in bacterial expression system assessed as residual binding level at 1 uM by kinomescan method relative to control"}, "[9]": {"system": "Proto-oncogene tyrosine-protein kinase receptor Ret (Homo sapiens), P07949 [V804M]", "sequence (P07949 whole entry V804M, the tested form may be a part)": "as the sequence (P07949 whole entry, the tested form may be a part) above, with V804M counted along it", "experiment": "Binding affinity to wild-type human partial length RET V804M mutant (E713 to D1014 residues) expressed in bacterial expression system assessed as residual binding level at 1 uM by kinomescan method relative to control"}, "[10]": {"biological_target": "T1, Coiled-coil domain-containing protein 6/Tyrosine-protein kinase receptor RET (Homo sapiens)", "experiment": "Inhibition of CCDC6-RET fusion protein in human LC-2-ad cells assessed as reduction in cell proliferation measured after 48 hrs by MTS assay", "assay_type": "cell-based"}, "A549": {"system": "A549", "experiment": "Antiproliferative activity against human A549 cells measured after 48 hrs by MTS assay", "assay_type": "functional"}, "KYSE-450": {"system": "KYSE-450", "experiment": "Antiproliferative activity against human KYSE-450 cells at 3.3 uM measured after 48 hrs by MTS assay", "assay_type": "functional", "conditions": "read-out: GI"}, "[11]": {"system": "Kinesin-1 heavy chain/ Tyrosine-protein kinase receptor RET (Homo sapiens), P07949+P33176 [V804M]", "experiment": "Inhibition of KIF5B-RET V804M mutant fusion protein (unknown origin) expressed in mouse BaF3 cells assessed as reduction in […] measured after 4 hrs by Western blot analysis", "assay_type": "cell-based"}, "[12]": {"biological_target": "T1, Coiled-coil domain-containing protein 6/Tyrosine-protein kinase receptor RET (Homo sapiens)", "experiment": "Inhibition of CCDC6-RET fusion protein (unknown origin) expressed in mouse BaF3 cells assessed as reduction in SHC phosphorylation at 10 to 500 nM measured after 4 hrs by Western blot analysis", "assay_type": "cell-based", "conditions": "dose 10-500 nM"}, "[13]": {"biological_target": "T1, Coiled-coil domain-containing protein 6/Tyrosine-protein kinase receptor RET (Homo sapiens)", "experiment": "Inhibition of CCDC6-RET fusion protein (unknown origin) expressed in mouse BaF3 cells assessed as reduction in AKT phosphorylation at 10 to 500 nM measured after 4 hrs by Western blot analysis", "assay_type": "cell-based", "conditions": "dose 10-500 nM"}, "BaF3 [14]": {"system": "BaF3", "experiment": "Inhibition of CCDC6-RET V804M mutant fusion protein (unknown origin) expressed in mouse BaF3 cells assessed as reduction in RET phosphorylation at 10 to 500 nM measured after 4 hrs by Western blot analysis", "assay_type": "cell-based", "conditions": "Homo sapiens, dose 10-500 nM"}, "BaF3 [15]": {"system": "BaF3", "experiment": "Inhibition of CCDC6-RET V804M mutant fusion protein (unknown origin) expressed in mouse BaF3 cells assessed as reduction in AKT phosphorylation at 10 to 500 nM measured after 4 hrs by Western blot analysis", "assay_type": "cell-based", "conditions": "Homo sapiens, dose 10-500 nM"}, "[16]": {"experiment": "Cmax in Sprague-Dawley rat at 1 mg/kg, iv", "assay_type": "ADME, organism-based", "design": "route intravenous, dose 1 mg/kg", "conditions": "in vivo"}, "[17]": {"experiment": "Half life in Sprague-Dawley rat at 10 mg/kg, po", "assay_type": "ADME, organism-based", "conditions": "in vivo"}, "[18]": {"experiment": "Tmax in Sprague-Dawley rat at 10 mg/kg, po", "assay_type": "ADME, organism-based", "conditions": "in vivo"}, "[19]": {"experiment": "AUC (0 to t) in Sprague-Dawley rat at 10 mg/kg, po", "assay_type": "ADME, organism-based", "design": "dose 10 mg/kg", "conditions": "in vivo"}, "[20]": {"experiment": "Oral bioavailability in Sprague-Dawley rat at 10 mg/kg", "assay_type": "ADME, organism-based", "conditions": "in vivo"}, "BaF3 [21]": {"system": "BaF3", "experiment": "Antitumor activity against KIF5B-RET fusion protein expressing mouse BaF3 cells implanted in iv dosed BALB/c mouse assessed as tumor growth inhibition administered once daily for 7 days", "assay_type": "functional, organism-based", "conditions": "dose 30-50 mg/kg, time 7.0 day"}, "BaF3 [22]": {"system": "BaF3", "experiment": "Antitumor activity against KIF5B-RET V804M mutant fusion protein expressing mouse BaF3 cells implanted in iv dosed BALB/c mouse assessed as tumor growth inhibition administered once daily for 7 days", "assay_type": "functional, organism-based", "conditions": "dose 30-50 mg/kg, time 7.0 day"}, "Mus musculus [23]": {"system": "Mus musculus", "experiment": "(§1) In vivo inhibition of KIF5B-RET fusion protein in BALB/c mouse implanted with KIF5B-RET fusion protein expressing mouse BaF3 cells assessed as reduction in SHC phosphorylation at 30 to 50 mg/kg, iv administered daily for 7 days and measured 4 hrs post last dose by Western blot analysis", "assay_type": "functional, organism-based", "conditions": "dose 30-50 mg/kg, time 7.0 day"}, "Mus musculus [24]": {"system": "Mus musculus", "experiment": "as §1, with “KIF5B-RET V804M mutant” for “KIF5B-RET”, “RET” for “SHC”", "assay_type": "functional, organism-based", "conditions": "dose 30-50 mg/kg, time 7.0 day"}, "BaF3 [25]": {"system": "BaF3", "experiment": "Induction of apoptosis in KIF5B-RET V804M mutant fusion protein expressing mouse BaF3 cells implanted in BALB/c mouse assessed as increase in cleaved PARP level at 30 to 50 mg/kg, iv administered once daily for 7 days measured 4 hrs post last dose by Western blot analysis", "assay_type": "functional, organism-based", "conditions": "dose 30-50 mg/kg, time 7.0 day"}, "BaF3 [26]": {"system": "BaF3", "experiment": "Induction of apoptosis in KIF5B-RET fusion protein expressing mouse BaF3 cells implanted in BALB/c mouse assessed as increase in cleaved PARP level at 30 to 50 mg/kg, iv administered once daily for 7 days measured 4 hrs post last dose by Western blot analysis", "assay_type": "functional, organism-based", "conditions": "dose 30-50 mg/kg, time 7.0 day"}, "[27]": {"experiment": "Toxicity in BALB/c mouse implanted with KIF5B-RET V804M mutant fusion protein expressing mouse BaF3 cells assessed as body weight loss at 30 to 50 mg/kg, iv administered daily for 7 days measured daily during compound dosing", "assay_type": "organism-based", "conditions": "in vivo, 168 h, dose 30-50 mg/kg, time 7 day"}, "BaF3 [28]": {"system": "BaF3", "experiment": "Antitumor activity against KIF5B-RET V804M mutant fusion protein expressing mouse BaF3 cells implanted in BALB/c mouse assessed as tumor growth inhibition at 30 to 50 mg/kg, iv administered once daily for 7 days relative to control", "assay_type": "functional", "conditions": "dose 30-50 mg/kg, time 7 day"}},
  "note": "Activity calls are given as the source filed them. The rule behind the calls is not given here.",
  "data": [
    {"smiles": "Cc1ccc(C(=O)Nc2ccc(CN3CCN(C)CC3)c(C(F)(F)F)c2)cc1Oc1nc(-c2cccnc2)nc2[nH]ncc12", "values": [
      {"measurement": "Activity", "setting": "[1]", "result": 0.05, "unit": "%"},
      {"measurement": "GI50", "setting": "[2]", "result": 9, "unit": "nM"},
      {"measurement": "GI50", "setting": "BaF3 [3]", "result": 45, "unit": "nM"},
      {"measurement": "GI50", "setting": "[4]", "result": 21, "unit": "nM"},
      {"measurement": "IC50", "setting": "[5]", "result": 8.42, "unit": "nM"},
      {"measurement": "IC50", "setting": "[6]", "result": 8.86, "unit": "nM"},
      {"measurement": "Activity", "setting": "[7]", "result": 0, "unit": "%"},
      {"measurement": "Activity", "setting": "[8]", "result": 0.8, "unit": "%"},
      {"measurement": "Activity", "setting": "[9]", "result": 0.25, "unit": "%"},
      {"measurement": "GI50", "setting": "[10]", "result": 38, "unit": "nM"},
      {"measurement": "GI50", "setting": "A549", "result": 3390, "unit": "nM"},
      {"measurement": "inhibition of growth at 3.3 µM", "setting": "KYSE-450", "result": 39, "unit": "%"},
      {"measurement": "inhibition", "setting": "[11]", "result": "Dose-dependent effect"},
      {"measurement": "inhibition", "setting": "[12]", "result": "Active"},
      {"measurement": "inhibition", "setting": "[13]", "result": "Active"},
      {"measurement": "inhibition", "setting": "BaF3 [14]", "result": "Active"},
      {"measurement": "inhibition", "setting": "BaF3 [15]", "result": "Active"},
      {"measurement": "Cmax", "setting": "[16]", "result": 6100, "unit": "ng/mL"},
      {"measurement": "half-life", "setting": "[17]", "result": 7.59, "unit": "h"},
      {"measurement": "Tmax", "setting": "[18]", "result": 0.75, "unit": "h"},
      {"measurement": "AUC(0-t)", "setting": "[19]", "result": 2110, "unit": "ng·h/mL"},
      {"measurement": "bioavailability", "setting": "[20]", "result": 3, "unit": "%"},
      {"measurement": "Activity", "setting": "BaF3 [21]", "result": "Dose-dependent effect"},
      {"measurement": "Activity", "setting": "BaF3 [22]", "result": "Dose-dependent effect"},
      {"measurement": "inhibition", "setting": "Mus musculus [23]", "result": "Dose-dependent effect"},
      {"measurement": "inhibition", "setting": "Mus musculus [24]", "result": "Dose-dependent effect"},
      {"measurement": "Activity", "setting": "BaF3 [25]", "result": "Active"},
      {"measurement": "Activity", "setting": "BaF3 [26]", "result": "Active"},
      {"measurement": "Activity", "setting": "[27]", "result": "Non-Toxic"},
      {"measurement": "TGI", "setting": "BaF3 [28]", "result": ">60", "unit": "%"}
    ]}
  ]
}
